“Also recorded” adds a separate entry of the source.
Key:
Assay type in all cases: cell-based
γ-H2AX foci = γ-H2AX foci clearance after damage; conditions: 2.5 μM/L YW-1842
Protocol: FIGS. 6F-6G show TRDMT1 inhibitor YW-1842 delays the repair of DSBs at the transcribed genome. (FIG. 6F) U2OS or MCF7 cells were treated with or without compound YW-1842 at the indicated concentration. The survival rate of these cells was shown (n=3, Mean±SD). (FIG. 6G) SCE WT cells were transfected with TA-KR and were cultured with 2.5 μM YW-1842 or not for 6 hours, γ-H2AX (n=3, 50 cells per replicated, Mean±SD) were stained and quantified.
Cells for immunofluorescence observation were fixed in 4% PFA (Affymetrix, 19943 1 LT) at room temperature for 15 min and further treated with 0.2% triton for 10 min. They were then blocked by 3% BSA (SIGMA, A-7030) at room temperature for 1 h. Primary antibody for RAD51 (ab63801, Abcam, 1:200)), RAD52 (sc-365341, Santa Cruz, CA, USA, 1:500), TRIM28 (ab10484, Abcam, 1:500), γH2AX ser139 (JBW301, 05-636, EMD Millipore, 1:200), were incubated with cells at 4° C. overnight. After washing with 0.05% PBS-Tween (PBST), the cells were incubated with secondary antibody for 1 h at room temperature.

[1] = tested on: MCF-7, HCC1954, and HCC1937 cells; experiment: Cell survival assay, YW-1842 combined with DNA damaging agents, IR or H2O2
Protocol: (§1) FIGS. 6A-6E show TRDMT1 Inhibitors specifically sensitizes cells to DNA damage agents. (FIG. 6A) SCE WT cells were transfected with TA-KR and were cultured with 2.5 μM/L, compound YW-1842 or not for 6 hours, m^5C (n=3, 50 cells per replicated, Mean±SD) was stained and quantified. DR-GFP (FIG. 6B) or EJ5-GFP (FIG. 6C) cells were pre-treated with 2.5 μM/L, compound YW-1842 for 6 h or TRDMT1 siRNA for 48 h, or DMSO. Then the cells were transfected with NLS-I-SceI plasmid to induce DSB. The efficiency of HR (FIG. 6B) or NHEJ (FIG. 6C) was analyzed by flow-cytometry (n=3, Mean±SD). (FIG. 6D) After seeding, MCF-7, HCC1954, and HCC1937 cells were pre-treated with or without 2.5 μM/L compound YW-1842 for 6 h, then cultured with chemotherapy drugs (1 μM/L, Cisplatin; 1 μM/L ATRi AZ20; 10 μM/L, ATMi KU55933; 1 μM/L, PARPi Olaparib for 10 days. The survival rate of these cells was analyzed (n=3, Mean±SD). (FIG. 6E) TRDMT1 KO U2OS cells were transfected with GFP-TRDMT1^WT or GFP-TRDMT1^G155V with or without 2.5 μM/L, compound YW-1842, the survival rate of these cells after IR or Cisplatin was shown (n=3, Mean±SD).
MCF-7, HCC1954, and HCC1937 cells were pre-treated with or without TRDMT1 inhibitor YW-1842 (2.5 μM) for 6 hrs, then the cells were exposed to IR or H2O2, and cultured for 7-14 days. The survival rate of these cells was analyzed (n=3, Mean±SD)
Approximately 500 U2OS/TRDMT1 KO U2OS/MCF-7/HCC1954/HCC1937 cells and TRDMT1 siRNA or GFP-TRDMT1 WT/G155V/K251R transfected cells were seeded in 6 cm dish with or without TRDMT1 inhibitors (2.5 μM/L). 6 hrs after seeding, cells were exposed to cisplatin (1134357, Sigma, 1 μM/L), ATMi (KU55933, C9867, Sigma, 10 μM/L), ATRi (AZ20, S7050, Selleck, 1 μM/L) or PARPi (Olaparib, AZD2461, Sigma, 1 μM/L) at indicated concentration or ionizing radiation (IR). After 7-14 days, colonies were fixed and stained with 0.3% crystal violet in methanol, and the number of colonies was counted manually.

TRDMT1 = target: T1, TRDMT1 (Homo sapiens, UniProt O14717); experiment: m^5C staining at TA-KR DNA damage sites in cells treated with YW-1842
T1 construct: SCE WT cells were transfected with TA-KR and were cultured with 2.5 μM/L, compound YW-1842 or not for 6 hours; endogenous in cells; host or cells: SCE WT cells (U2OS-TRE type) transfected with TA-KR only
T1 sequence (O14717 1-391): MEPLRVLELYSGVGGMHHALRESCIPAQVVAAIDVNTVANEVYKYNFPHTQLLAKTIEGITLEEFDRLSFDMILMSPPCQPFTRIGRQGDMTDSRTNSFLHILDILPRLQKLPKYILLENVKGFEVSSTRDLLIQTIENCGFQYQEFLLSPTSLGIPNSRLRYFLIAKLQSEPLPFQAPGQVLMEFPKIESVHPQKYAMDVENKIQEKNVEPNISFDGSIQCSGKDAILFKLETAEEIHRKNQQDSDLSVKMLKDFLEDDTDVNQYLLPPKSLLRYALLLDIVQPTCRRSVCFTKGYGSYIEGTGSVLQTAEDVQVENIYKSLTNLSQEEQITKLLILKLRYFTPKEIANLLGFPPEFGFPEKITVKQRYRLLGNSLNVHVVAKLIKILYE
Protocol: as §1
The Olympus FV1000 confocal microscopy system (Cat. F10PRDMYR-1, Olympus) and FV1000 software were used for the acquisition of images. Cells were cultured in 35 mm glass-bottom dishes (MatTek, P35GC-1.5-14-C) before observation. Activation of KR in bulky cells was completed by exposing cells to a 15 W Sylvania cool white fluorescent bulb for 25 min in a stage UVP (Uvland, CA). The intensity was measured by ImageJ 1.52i software.
For m^5C staining using the heat method, the cells or tissues were fixed and permeabilized in a 35 mm glass-bottom dish using a standard protocol, incubated in buffer (10 mM Tris-HCl, 2 mM EDTA, pH=9) and steamed on a 95° C. heating block for 20 min to expose the antigen. The dish was cooled, washed 3 times with PBS and blocked using 5% BSA in 0.1% PBST for 0.5 h at room temperature. Primary antibody for m^5C (33D3, ab10805, Abcam) and secondary antibody were diluted in the same buffer (5% BSA in 0.1% PBST) and followed the standard IF protocol. […]

TRDMT1 KO U2OS cells = experiment: Cell survival after IR or Cisplatin in TRDMT1 KO U2OS cells with or without YW-1842; conditions: 2.5 μM/L
Protocol: as §1
Approximately 500 U2OS/TRDMT1 KO U2OS/MCF-7/HCC1954/HCC1937 cells and TRDMT1 siRNA or GFP-TRDMT1 WT/G155V/K251R transfected cells were seeded in 6 cm dish with or without TRDMT1 inhibitors (2.5 μM/L). […]

## COc1cc2nc(-n3cc(-c4ccc(S(C)(=O)=O)cc4)cn3)nc(-c3ccsc3)c2cc1OC [YW-1842, 6,7-dimethoxy-2-(4-(4-(methylsulfonyl)phenyl)-1H-pyrazol-1-yl)-4-(thiophen-3-yl)quinazoline]
γ-H2AX foci
  DNA repair efficiency (clearance of γ-H2AX foci after IR): delayed clearance of γ-H2AX foci
[1]; 2.5 μM, combined with H2O2
  survival rate in combination with H2O2 compared to DMSO: decreased the survival rate of all the three cell lines
[1]; 2.5 μM, combined with IR
  sensitivity to IR in combination: clear sensitivity enhancement
[1]; 2.5 μM/L pre-treatment 6 h
  sensitization to DNA damaging agents (Cisplatin, ATRi AZ20, ATMi KU55933, PARPi Olaparib) compared to single treatment: sensitizes the cells
[1]; YW-1842 2.5 μM, Olaparib 1 μM, HCC 1954 cell lines
  synergy with PARPi Olaparib: strong synergy
TRDMT1
  TRDMT1 inhibition (overall statement): potent inhibitor for TRDMT1; also recorded: high inhibitory activity
  inhibiting TRDMT1 recruitment, m^5C formation and HR efficiency at DNA damage sites: performed well
TRDMT1; 2.5 μM/L, 6 hours, cells transfected with TA-KR
  m^5C inhibitory activity: almost equivalent to TRDMT1 depletion
TRDMT1 KO U2OS cells
  sensitization of TRDMT1 KO cells to IR or Cisplatin: does not sensitize TRDMT1 KO

— patent US12496302B2, “Compositions and methods for the treatment and diagnosis of cancer” (The General Hospital Corporation, priority 2020, dated 2025)
